Test results: the supplement of paper PMC10307832

Legend:
Test in all cases: relative viability (nuclei count vs DMSO), 5 days (fraction); higher = more cells survive
Wnt-C59 + Foretinib = compound: CC1=NC=CC(=C1)C2=CC=C(C=C2)CC(=O)NC3=CC=C(C=C3)C4=CN=CC=C4 [Wnt-C59] + COc1cc2c(Oc3ccc(NC(=O)C4(C(=O)Nc5ccc(F)cc5)CC4)cc3F)ccnc2cc1OCCCN1CCOCC1 [Foretinib] (partner 0.25 µM)
Method in brief: (§1)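 For relative viability, nuclei counts in treated wells were divided by those in vehicle wells. Lung cancer cell lines had been pin-tool dosed in 1536-well plates the day after seeding and cultured for 5 days, then fixed and stained in one step (final 0.05% Triton X-100, 1% formaldehyde, 1 ug/ml Hoechst) and imaged at 4×. Doses were one drug alone or a fixed anchor-drug dose plus five library-drug doses (not always all listed) in √10 steps, and values are duplicate-plate medians.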

Lapatinib + Phenformin = compound: CS(=O)(=O)CCNCc1ccc(-c2ccc3ncnc(Nc4ccc(OCc5cccc(F)c5)c(Cl)c4)c3c2)o1 [Lapatinib] + N=C(N)NC(=N)NCCc1ccccc1 [Phenformin] (partner 250 µM)
Method in brief: as §1

Wnt-C59 + Phenformin = compound: CC1=NC=CC(=C1)C2=CC=C(C=C2)CC(=O)NC3=CC=C(C=C3)C4=CN=CC=C4 [Wnt-C59] + N=C(N)NC(=N)NCCc1ccccc1 [Phenformin] (partner 250 µM)
Method in brief: as §1

Wnt-C59 = compound: CC1=NC=CC(=C1)C2=CC=C(C=C2)CC(=O)NC3=CC=C(C=C3)C4=CN=CC=C4 [Wnt-C59]
Method in brief: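 Viability was defined as treated-well nuclei divided by vehicle-well nuclei, with the median taken over replicate plates. Cells from lung cancer lines sat overnight at 37 °C in 1536-well plates, received five √10-spaced library-drug doses by pinning on vehicle-anchored plates, and grew 5 days without medium change before one-step fixation, permeabilisation and Hoechst staining, 4× imaging and MetaXpress nuclear counts. Only plates with control CV under 25% and at least one doubling were kept.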

| Cell Line | relative viability (Wnt-C59 + Foretinib; first compound 0.001 µM) | relative viability (Wnt-C59 + Foretinib; first compound 0.01 µM) | relative viability (Wnt-C59 + Foretinib; first compound 0.03162 µM) | relative viability (Wnt-C59 + Foretinib; first compound 0.1 µM) | relative viability (Lapatinib + Phenformin; first compound 0.02 µM) | relative viability (Lapatinib + Phenformin; first compound 0.06325 µM) | relative viability (Lapatinib + Phenformin; first compound 0.2 µM) | relative viability (Lapatinib + Phenformin; first compound 0.6325 µM) | relative viability (Lapatinib + Phenformin; first compound 2 µM) | relative viability (Wnt-C59 + Phenformin; first compound 0.001 µM) | relative viability (Wnt-C59 + Phenformin; first compound 0.01 µM) | relative viability (Wnt-C59 + Phenformin; first compound 0.03162 µM) | relative viability (Wnt-C59 + Phenformin; first compound 0.1 µM) | relative viability (Wnt-C59; 0.001 µM) | relative viability (Wnt-C59; 0.01 µM) | relative viability (Wnt-C59; 0.03162 µM) | relative viability (Wnt-C59; 0.1 µM) |
| --- | --- | --- | --- | --- | --- | --- | --- | --- | --- | --- | --- | --- | --- | --- | --- | --- | --- |
| HCC-827 | 1.08 | 1 | 1.03 | 1.04 | 0.383 | 0.398 | 0.412 | 0.414 | 0.335 | 0.431 | 0.413 | 0.452 | 0.391 | 1.1 | 1.05 | 1.02 | 1.06 |
| HOP-62 | 1.1 | 1.06 | 1.07 | 1.19 | 0.499 | 0.641 | 0.635 | 0.631 | 0.695 | 0.771 | 0.603 | 0.662 | 0.607 | 0.998 | 1 | 1.06 | 0.953 |
| IA-LM | 1.23 | 1.01 | 1.11 | 1.03 |  |  |  |  |  |  |  |  |  | 1.05 | 0.909 | 0.94 | 0.884 |
| LC-2-ad | 0.936 | 0.947 | 1.02 | 0.947 |  | 0.438 | 0.551 | 0.478 | 0.519 | 0.68 | 0.546 | 0.659 | 0.545 | 1.05 | 0.966 | 0.933 | 0.955 |
| LCLC-97TM1 | 1.03 | 0.949 | 1.03 | 0.896 |  |  | 0.462 | 0.407 | 0.471 | 0.397 | 0.425 | 0.475 | 0.429 | 1.04 | 0.908 | 1.07 | 1.06 |
| LCLC-103H | 0.752 | 0.891 | 0.889 | 0.641 | 0.276 | 0.271 | 0.316 | 0.363 | 0.382 | 0.352 | 0.334 | 0.366 | 0.329 | 0.959 | 0.986 | 0.987 | 1.03 |
| LK-2 | 1.28 | 1.02 | 1.46 | 1.25 |  |  | 0.606 | 0.663 | 0.419 | 0.479 | 0.379 | 0.481 | 0.321 | 0.958 | 0.982 | 0.993 | 1.12 |
| LOU-NH91 | 0.941 | 0.764 | 0.988 | 0.92 | 0.463 | 0.533 | 0.479 | 0.533 | 0.433 | 0.793 | 0.641 | 0.601 | 0.672 | 0.978 | 0.892 | 0.955 | 1.04 |
| LU99A | 0.845 | 0.853 | 0.963 | 0.831 | 0.379 | 0.712 | 0.743 | 0.866 | 0.792 | 0.904 | 0.845 | 0.879 | 0.876 | 0.946 | 0.923 | 1.09 | 0.936 |
| LXF-289 | 0.991 | 0.98 | 1.01 | 0.979 | 0.142 | 0.482 | 0.509 | 0.488 | 0.52 | 0.552 | 0.535 | 0.552 | 0.503 | 0.983 | 0.993 | 0.999 | 0.976 |
